Measured values published in patent US5639783A, “Ketone derivatives” (Mitsubishi Chemical Corporation, priority 1991, dated 1997).
Read-outs that look alike come from different tables or passages of the source.

Columns and labels:
Assay type in all cases: biochemical
m-calpain = target: T1, m-calpain (Rattus norvegicus, UniProt Q07009); test: Thiol protease inhibitory activity, m-calpain purified from rat brain
T1 construct: m-calpain was purified from rat brain; from tissue; host or cells: rat brain
T1 sequence (Q07009 20-700 limits assumed): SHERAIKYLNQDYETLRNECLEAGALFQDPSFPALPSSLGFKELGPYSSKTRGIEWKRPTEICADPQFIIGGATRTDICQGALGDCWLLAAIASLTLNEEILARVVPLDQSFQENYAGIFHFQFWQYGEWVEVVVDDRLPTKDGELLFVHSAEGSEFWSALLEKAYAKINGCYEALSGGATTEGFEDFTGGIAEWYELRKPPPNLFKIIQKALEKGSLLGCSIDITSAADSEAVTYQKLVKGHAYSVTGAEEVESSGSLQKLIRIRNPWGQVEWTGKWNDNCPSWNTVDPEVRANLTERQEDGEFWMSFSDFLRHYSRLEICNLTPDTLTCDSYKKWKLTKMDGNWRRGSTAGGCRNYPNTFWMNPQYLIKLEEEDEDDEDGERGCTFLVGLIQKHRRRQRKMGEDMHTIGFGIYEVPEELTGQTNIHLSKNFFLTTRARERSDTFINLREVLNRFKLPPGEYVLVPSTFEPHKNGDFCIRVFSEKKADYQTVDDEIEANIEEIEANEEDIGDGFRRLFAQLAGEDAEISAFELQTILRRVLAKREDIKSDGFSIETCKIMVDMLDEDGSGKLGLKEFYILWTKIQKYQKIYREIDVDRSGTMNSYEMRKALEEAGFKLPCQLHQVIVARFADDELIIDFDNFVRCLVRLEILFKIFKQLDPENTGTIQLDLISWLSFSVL
T1 sequence (Q64537 1-270 partner): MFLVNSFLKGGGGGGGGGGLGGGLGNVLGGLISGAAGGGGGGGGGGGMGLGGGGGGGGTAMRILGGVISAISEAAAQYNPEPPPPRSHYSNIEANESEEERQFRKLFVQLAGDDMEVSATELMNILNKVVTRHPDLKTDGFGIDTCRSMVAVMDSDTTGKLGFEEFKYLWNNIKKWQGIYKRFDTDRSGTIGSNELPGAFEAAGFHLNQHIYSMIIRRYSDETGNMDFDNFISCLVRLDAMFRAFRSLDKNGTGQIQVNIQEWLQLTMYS
Procedure: (§1) Inhibitory activity against papain (P-3125, Sigma) and cathepsin B (C-6286, Sigma) was assayed according to the method described in a literature [Biochemical Journal, 201, 189 (1982)]. Cathepsin L was purified from rat kidney according to the method in a literature [Journal of Biochemistry, 100, 35 (1986)], and the inhibitory activity against it was assayed in the same manner as described in the above literature for cathepsin B. Furthermore, m-calpain was purified from rat brain according to a known method [Journal of Biological Chemistry, 254, p. 3210 (1984)] and the inhibitory activity against it was assayed by a method described in a literature [Journal of Biological Chemistry, 259, 12489 (1984)]. It is evident from Tables 3 and 4 that the compounds of the present invention have a potent inhibitory activity against thiol proteases such as papain, cathepsin B, cathepsin L or m-calpain.

papain = target: T2, papain (Carica papaya, UniProt P00784); test: Thiol protease inhibitory activity, papain (P-3125, Sigma)
T2 sequence (P00784 134-345): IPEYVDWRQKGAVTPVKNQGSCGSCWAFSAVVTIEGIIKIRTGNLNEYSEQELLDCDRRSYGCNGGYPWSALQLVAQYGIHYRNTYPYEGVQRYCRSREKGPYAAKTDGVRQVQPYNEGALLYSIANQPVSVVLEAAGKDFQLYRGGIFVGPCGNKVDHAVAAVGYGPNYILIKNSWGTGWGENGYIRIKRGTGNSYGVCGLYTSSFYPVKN
Procedure: as §1

cathepsin L = target: T3, cathepsin L (Rattus norvegicus, UniProt P07154); test: Thiol protease inhibitory activity, cathepsin L purified from rat kidney; conditions: Table 3
T3 construct: Cathepsin L was purified from rat kidney; from tissue; host or cells: rat kidney
Procedure: as §1

cathepsin B = target: T4, cathepsin B (Bos taurus, UniProt P07688); test: Thiol protease inhibitory activity, cathepsin B (C-6286, Sigma); conditions: Table 3
T4 construct: purchased Sigma C-6286
Procedure: as §1

T3 sequence (P07154 114-334): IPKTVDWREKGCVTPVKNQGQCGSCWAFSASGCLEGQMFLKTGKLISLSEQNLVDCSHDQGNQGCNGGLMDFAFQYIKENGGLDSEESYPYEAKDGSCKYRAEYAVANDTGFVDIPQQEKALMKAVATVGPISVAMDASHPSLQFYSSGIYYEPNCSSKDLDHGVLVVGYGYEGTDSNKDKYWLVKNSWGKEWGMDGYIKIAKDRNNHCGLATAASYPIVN

Question: CSCC(=O)[C@H](CCc1ccccc1)NC(=O)[C@H](CC(C)C)NC(=O)COc1ccccc1 [203 (No. 536), (s)-3-((s)-4-methyl-2-phenoxyacetylaminovalerylamino)-1-methylthio-5-phenyl-2-pentanone] was tested. Which IC50 (m-calpain; Table 3) did it give?
Answer: 9.1 µM

Question: And the IC50 (papain)?
Answer: 4400 nM

Question: And the IC50 (cathepsin L)?
Answer: 380 nM

Question: And the IC50 (cathepsin B)?
Answer: 340 nM

Question: What does the source list for CCCC[C@H](NC(=O)[C@H](CC(C)C)NC(=O)Cc1ccc(F)cc1)C(=O)CSCc1ccco1 [31 (No. 69), (s)-3-[(s)-2-(4-fluorophenylacetylamino)-4-methylvalerylamino]-1-furfurylthio-2-heptanone]?
Answer: IC50 (m-calpain; Table 3): 22 µM; IC50 (papain; Table 3, read-out: IC50 papain): 1400 nM; IC50 (cathepsin L): 630 nM; IC50 (cathepsin B): 550 nM

Question: For CCCC[C@H](NC(=O)[C@H](CC(C)C)NC(=O)COc1ccc(Cl)cc1)C(=O)CSCc1ccco1 [40 (No. 90), (s)-3-[(s)-2-(4-chlorophenoxyacetylamino)-4-methylvalerylamino]-1-furfurylthio-2-heptanone], which IC50 (m-calpain; Table 3) is on record?
Answer: 8.4 µM

Question: What about the IC50 (papain; Table 3, read-out: IC50 papain) of the same molecule?
Answer: 2100 nM

Question: And the IC50 (cathepsin L)?
Answer: 850 nM

Question: What about the IC50 (cathepsin B) of the same molecule?
Answer: 270 nM

Question: For CCCC[C@H](NC(=O)[C@H](CC(C)C)NC(=O)COc1c(Cl)cc(Cl)cc1Cl)C(=O)CSCc1ccco1 [43 (No. 94), (s)-1-furfurylthio-3-[(s)-4-methyl-2-(2,4,6-trichlorophenoxyacetylamino)valerylamino]-2-heptanone], which IC50 (m-calpain; Table 3) is on record?
Answer: 5.8 µM

Question: What about the IC50 (papain; Table 3, read-out: IC50 papain) of the same molecule?
Answer: 370 nM

Question: And the IC50 (cathepsin L)?
Answer: 38 nM

Question: And the IC50 (cathepsin B)?
Answer: 57 nM

Question: How did the IC50 (m-calpain; Table 3) turn out when CCCC[C@H](NC(=O)[C@H](CC(C)C)NC(=O)COc1cccc(C)c1)C(=O)CSCc1ccco1 [45 (No. 97), (s)-1-furfurylthio-3-[(s)-4-methyl-2-(3-methylphenoxyacetylamino)valerylamino]-2-heptanone] was run?
Answer: 11 µM

Question: What about the IC50 (papain; Table 3, read-out: IC50 papain) of the same molecule?
Answer: 510 nM

Question: And the IC50 (cathepsin L)?
Answer: 190 nM

Question: What about the IC50 (cathepsin B) of the same molecule?
Answer: 380 nM

Question: What does the source list for CCCC[C@H](NC(=O)[C@H](CC(C)C)NC(=O)Cc1csc2ccccc12)C(=O)CSCc1ccco1 [34 (No. 79), (s)-3-[(s)-2-(3-benzothienylacetylamino)-4-methylvalerylamino]-1-furfurylthio-2-heptanone]?
Answer: IC50 (m-calpain; Table 3): 5.5 µM; IC50 (papain; Table 3, read-out: IC50 papain): 360 nM; IC50 (cathepsin L): 510 nM; IC50 (cathepsin B): 410 nM

Question: What does the source list for CCCC[C@H](NC(=O)[C@H](CC(C)C)NC(=O)COc1ccccc1Cl)C(=O)CSCc1ccco1 [39 (No. 88), (s)-3-[(s)-2-(2-chlorophenoxyacetylamino)-4-methylvalerylamino]-1-furfurylthio-2-heptanone]?
Answer: IC50 (m-calpain; Table 3): 2.2 µM; IC50 (papain; Table 3, read-out: IC50 papain): 250 nM; IC50 (cathepsin B): 290 nM

Question: How did the IC50 (m-calpain; Table 3) turn out when CCC(C)[C@H](NC(=O)OCC1CCCCC1)C(=O)N[C@@H](Cc1ccccc1)C(=O)CSCc1ccco1 (some centres unmarked) [135 (No. 288), (s)-3-((s)-2-cyclohexylmethoxycarbonylamino-3-methylvalerylamino)-1-furfurylthio-4-phenyl-2-butanone] was run?
Answer: 3.2 µM

Question: What about the IC50 (papain; Table 3, read-out: IC50 papain) of the same molecule?
Answer: 59000 nM

Question: What about the IC50 (cathepsin L) of the same molecule?
Answer: 54 nM

Question: And the IC50 (cathepsin B)?
Answer: 310 nM

Question: Which IC50 (m-calpain; Table 3) does the source give for CC(C)C[C@H](NC(=O)OCc1ccccc1)C(=O)N[C@@H](Cc1ccccc1)C(=O)CN(C)Cc1ccco1 [191 (No. 479), (s)-3-((s)-2-benzyloxycarbonylamino-4-methylvalerylamino)-1-(N-methylfurfurylamino)-4-phenyl-2-butanone] here?
Answer: 24 µM

Question: What about the IC50 (papain; Table 3, read-out: IC50 papain) of the same molecule?
Answer: > 100000 nM

Question: And the IC50 (cathepsin L)?
Answer: 9300 nM

Question: And the IC50 (cathepsin B)?
Answer: 3500 nM

Question: What does the source list for CC(C)C[C@H](NC(=O)COc1ccccc1)C(=O)N[C@@H](Cc1ccc(Cl)cc1)C(=O)CSCc1ccco1 [197 (No. 511), (s)-4-(4-chlorophenyl)-1-furfurylthio-3-((s)-4-methyl-2-phenoxyacetylaminovalerylamino)-2-butanone]?
Answer: IC50 (m-calpain; Table 3): 7.8 µM; IC50 (papain): 13000 nM; IC50 (cathepsin L): 1700 nM; IC50 (cathepsin B): 6000 nM

Question: What does the source list for CC(C)C[C@H](NC(=O)Cc1cccc2ccccc12)C(=O)N[C@@H](Cc1ccccc1)C(=O)CSCc1ccco1 [159 (No. 333), (s)-1-furfurylthio-3-[(s)-4-methyl-2-(l-naphtylacetylamino)valerylamino]-4-phenyl-2-butanone]?
Answer: IC50 (m-calpain; Table 3): 1.9 µM; IC50 (papain; Table 3, read-out: IC50 papain): 380 nM; IC50 (cathepsin L): 1100 nM; IC50 (cathepsin B): 750 nM

Question: For CCCC[C@H](NC(=O)[C@H](CC(C)C)NC(=O)COc1cccc(Cl)c1Cl)C(=O)CSCc1ccco1 [41 (No. 91), (s)-3-[(s)-2-(2,3-dichlorophenoxyacetylamino)-4-methylvalerylamino]-1-furfurylthio-2-heptanone], which IC50 (m-calpain; Table 3) is on record?
Answer: 14 µM

Question: What about the IC50 (papain; Table 3, read-out: IC50 papain) of the same molecule?
Answer: 21000 nM

Question: And the IC50 (cathepsin L)?
Answer: 1100 nM

Question: What about the IC50 (cathepsin B) of the same molecule?
Answer: 5700 nM

Question: Which IC50 (m-calpain; Table 3) does the source give for CCCC[C@H](NC(=O)[C@H](CC(C)C)NC(=O)Cc1ccccc1)C(=O)CSCc1ccco1 [30 (No. 66), (s)-1-furfurylthio-3-((s)-4-methyl-2-phenylacetylaminovalerylamino)-2-heptanone] here?
Answer: 5.1 µM

Question: What about the IC50 (papain) of the same molecule?
Answer: 150 nM

Question: What about the IC50 (cathepsin B) of the same molecule?
Answer: 590 nM

Question: With CCCC[C@H](NC(=O)[C@H](CC(C)C)NC(=O)COc1cccc2ccccc12)C(=O)CSCc1ccco1 [52 (No. 114), (s)-1-furfurylthio-3-[-(s)-4-methyl-2-(1-naphtoxyacetylamino)valerylamino]-2-heptanone] as the molecule, how does the IC50 (m-calpain; Table 3) read?
Answer: 2.5 µM

Question: What about the IC50 (papain; Table 3, read-out: IC50 papain) of the same molecule?
Answer: 340 nM

Question: What about the IC50 (cathepsin B) of the same molecule?
Answer: 820 nM

Question: With CCCC[C@H](NC(=O)[C@H](CC(C)C)NC(=O)OCC1CCCCC1)C(=O)CSCc1ccco1 [21 (No. 46), (s)-3-((s)-2-cyclohexylmethoxycarbonylamino-4-methylvalerylamino)-1-furfurylthio-2-heptanone] as the molecule, how does the IC50 (m-calpain; Table 3) read?
Answer: 4.7 µM

Question: And the IC50 (papain; Table 3, read-out: IC50 papain)?
Answer: 130 nM

Question: What about the IC50 (cathepsin B) of the same molecule?
Answer: 140 nM

Question: How did the IC50 (m-calpain; Table 3) turn out when CC(C)C[C@H](NC(=O)Cc1csc2ccccc12)C(=O)N[C@@H](Cc1ccccc1)C(=O)CSCc1ccco1 [162 (No. 345), (s)-3-[(s)-2-(3-benzothienylacetylamino)-4-methylvalerylamino]-1-furfurylthio-4-phenyl-2-butanone] was run?
Answer: 3.7 µM

Question: What about the IC50 (papain; Table 3, read-out: IC50 papain) of the same molecule?
Answer: 950 nM

Question: What about the IC50 (cathepsin B) of the same molecule?
Answer: 5300 nM

Question: For CCCC[C@H](NC(=O)[C@H](CC(C)C)NC(=O)c1cc2cccc(F)c2o1)C(=O)CSCc1ccco1 [93 (No. 182), (s)-3-[(s)-2-(7-fluoro-2-benzofuranylcarbonylamino)-4-methylvalerylamino]-1-furfurylthio-2-heptanone], which IC50 (m-calpain; Table 4) is on record?
Answer: 7.8 µM

Question: CCCC[C@H](NC(=O)[C@H](CC(C)C)NC(=O)c1cc(F)ccc1F)C(=O)CSCc1ccco1 [60 (No. 122), (s)-3-[(s)-2-(2,5-difluorobenzoylamino)-4-methylvalerylamino]-1-furfurylthio-2-heptanone] was tested. Which IC50 (m-calpain; Table 4) did it give?
Answer: 1.3 µM

Question: With CCCC[C@H](NC(=O)[C@H](CC(C)C)NC(=O)c1cccc(F)c1)C(=O)CSCc1ccco1 [56 (No. 118), (s)-3-[(s)-2-(3-fluorobenzoylamino)-4-methylvalerylamino]-1-furfurylthio-2-heptanone] as the molecule, how does the IC50 (m-calpain; Table 4) read?
Answer: 5.2 µM

Question: CCCC[C@H](NC(=O)[C@H](CC(C)C)NC(=O)OCc1ccccc1)C(=O)CSCc1ccccn1 [105 (No. 226), (s)-3-((s)-2-benzyloxycarbonylamino-4-methylvalerylamino)-1-(2-pyridylmethylthio)-2-heptanone] was tested. Which IC50 (m-calpain; Table 4) did it give?
Answer: 1.3 µM

Question: With CCCC[C@H](NC(=O)[C@H](CC(C)C)NC(=O)c1c(F)c(F)c(F)c(F)c1F)C(=O)CSCc1ccco1 [68 (No. 135), (s)-1-furfurylthio-3-((s)-4-methyl-2-pentafluorobenzoylaminovalerylamino)-2-heptanone] as the molecule, how does the IC50 (m-calpain; Table 4) read?
Answer: 2.1 µM

Question: With CCCC[C@H](NC(=O)[C@H](CC(C)C)NC(=O)C=Cc1ccc(OC)cc1)C(=O)CSCc1ccco1 [84 (No. 165), (s)-1-furfurylthio-3-[(s)-2-(4-methoxycinnamoylamino)-4-methylvalerylamino]-2-heptanone] as the molecule, how does the IC50 (m-calpain; Table 4) read?
Answer: 2.1 µM
